Measured values reported in US5147876A, “2,6-di,2,4,6-, 2,5,6-tri and 2,4,5,6-tetra-substituted pyrimidines, their pharmaceutically acceptable salts, pharmaceutical compositions containing same and their use in the treatment of neurological diseases” (Mitsui Petrochemical Industries, Ltd., priority 1988, dated 1992).

Legend:
Acute toxicity on mice = format: in vivo; details: mouse, in vivo, ip, 24 hours after administration; read-out: Estimated LD50
Description: The acute toxicity of the compounds of the invention was examined by the following method.
Male ddy-strain 5-week old mice, 4-6- per group, were used as experimental animals. Each of the compounds was intraperitoneally (i.p.), and the toxicity of the compound was assessed 24 hours after the administration.

[1] = test system: neuro-2a (mouse neuroblastoma cells); experiment: Action on neuro-2a: proportion of cells containing outgrown neurites; format: cell-based; details: mean ± S.D.
Description: (§1) The effects of the compounds of this invention on neuroblastoma cells were examined by the following method.
(§2) Mouse neuro 2a cells in the logarithmic growth period in the Dulbecco's modified Eagle's medium DMEM, containing 100 units/ml of penicillin G sodium and 100 micrograms/ml of streptomycin sulfate]containing 10 % of FCS were seeded in a 48-well plate so that the number of cells was 1,000 cells/well, and cultured for one day in 0.25 ml of the culture fluid in each well in an incubator containing 5 % of carbon dioxide gas in air at 37° C. Then, a 4 % aqueous glutaraldehyde solution in the same amount as a medium (0.25 ml) was added, and the culture fluid was left to stand at room temperature for 2 hours to fix the cells. After washing with water, a 0.05 % aqueous solution of methylene blue was added to stain the cells Under a microscope, the number of cells containing outgrown neurites (cells having at least one neurite with a length of at least two times as large as the long diameter of the cell) was counted visually, and the proportion of these cells in the entire cells was calculated. The well was observed over 5 or more visual fields (at least 2 % of the entire surface area of the well) continuous to the left and right from a mark put at the center of the well, and more than 200 cells was counted. One drug compound was used in 6 different concentrations at most, and three runs were conducted for each concentrations.

[2] = test system: NS-20Y (mouse neuroblastoma cells); experiment: Activity on NS-20Y cells: appearance of neurites; format: cell-based
Description: as §1, §2
Mouse neuroblastoma cells NS-20Y were similarly cultured in a dish coated with polyornithine, and the effects of the compounds were examined.

SMILES: CN(C)c1nccc(N(C)C(=O)c2ccccc2)n1 [Compound 104]
- LD50 at 24 h (Acute toxicity on mice): 500 to 1000 mg/kg
- Number of cells having neurites with a length at least two times the diameter of each cell/total number of cells ([1]; 0.03 mM): 2.5 ± 0.8%
- Number of cells having neurites with a length at least two times the diameter of each cell/total number of cells ([1]; 0.1 mM): 4.1 ± 1.5%
- Number of cells having neurites with a length at least two times the diameter of each cell/total number of cells ([1]; 0.3 mM): 7.7 ± 3.8%
- Number of cells having neurites with a length at least two times the diameter of each cell/total number of cells ([1]; 1 mM): 3.6 ± 1.4%

SMILES: Cc1ccc(S(=O)(=O)O)cc1.Cc1ccccc1C(=O)N(C)c1ccnc(N2CCC(c3ccccc3)CC2)n1 [Compound 171-7]
- Number of cells having neurites with a length at least two times the diameter of each cell/total number of cells ([1]; 0.03 mM): 8.5 ± 1.0%
- Number of cells having neurites with a length at least two times the diameter of each cell/total number of cells ([1]; 0.1 mM): 6.7 ± 3.1%
- Number of cells in which neurites appeared/total number of cells ([2]; 24 hours, 0.1 mM): 4/50
- Number of cells in which neurites appeared/total number of cells ([2]; 48 hours, 0.1 mM): 2/50

SMILES: CN(C)CCN(C(=O)c1ccccc1)c1ccnc(N2CCC(c3ccccc3)CC2)n1 [Compound 200]
- Number of cells having neurites with a length at least two times the diameter of each cell/total number of cells ([1]; 0.01 mM): 4.2 ± 1.6%
- Number of cells having neurites with a length at least two times the diameter of each cell/total number of cells ([1]; 0.03 mM): 7.6 ± 1.6%
- Number of cells in which neurites appeared/total number of cells ([2]; 24 hours, 0.02 mM): 4/50
- Number of cells in which neurites appeared/total number of cells ([2]; 48 hours, 0.02 mM): 2/50

SMILES: CN(C(=O)C(C)(C)C)c1ccnc(N2CCC(c3ccccc3)CC2)n1 [Compound 224]
- Number of cells having neurites with a length at least two times the diameter of each cell/total number of cells ([1]; 0.03 mM): 4.6 ± 1.7%
- Number of cells having neurites with a length at least two times the diameter of each cell/total number of cells ([1]; 0.1 mM): 5.5 ± 1.5%
- Number of cells in which neurites appeared/total number of cells ([2]; 24 hours, 0.02 mM): 6/50
- Number of cells in which neurites appeared/total number of cells ([2]; 48 hours, 0.02 mM): 3/50

SMILES: CN(C(=O)c1ccc(F)cc1)c1ccnc(N2CCC(c3ccccc3)CC2)n1 [Compound 242]
- Number of cells having neurites with a length at least two times the diameter of each cell/total number of cells ([1]; 0.1 mM): 17.0 ± 2.3%
- Number of cells having neurites with a length at least two times the diameter of each cell/total number of cells ([1]; 0.3 mM): 12.8 ± 6.3%
- Number of cells having neurites with a length at least two times the diameter of each cell/total number of cells ([1]; 1 mM): 9.4 ± 3.9%
- Number of cells in which neurites appeared/total number of cells ([2]; 24 hours, 0.2 mM): 4/50
- Number of cells in which neurites appeared/total number of cells ([2]; 24 hours, 0.4 mM): 6/50
- Number of cells in which neurites appeared/total number of cells ([2]; 48 hours, 0.1 mM): 6/50
- Number of cells in which neurites appeared/total number of cells ([2]; 48 hours, 0.2 mM): 11/50

SMILES: CN(C(=O)c1ccccc1)c1ccnc(N2CCOCC2)n1 [Compound 336]
- Number of cells having neurites with a length at least two times the diameter of each cell/total number of cells ([1]; 0.1 mM): 5.8 ± 2.4%
- Number of cells having neurites with a length at least two times the diameter of each cell/total number of cells ([1]; 0.3 mM): 6.3 ± 2.8%
- Number of cells in which neurites appeared/total number of cells ([2]; 24 hours, 0.2 mM): 3/54
- Number of cells in which neurites appeared/total number of cells ([2]; 48 hours, 0.5 mM): 2/50

SMILES: CN(C(=O)c1ccccc1)c1ccnc(N2CCNCC2)n1 [Compound 344]
- Number of cells having neurites with a length at least two times the diameter of each cell/total number of cells ([1]; 0.01 mM): 3.6 ± 0.7%
- Number of cells having neurites with a length at least two times the diameter of each cell/total number of cells ([1]; 0.03 mM): 4.0 ± 1.7%
- Number of cells having neurites with a length at least two times the diameter of each cell/total number of cells ([1]; 0.1 mM): 4.7 ± 1.8%
- Number of cells having neurites with a length at least two times the diameter of each cell/total number of cells ([1]; 0.3 mM): 4.5 ± 2.1%
- Number of cells in which neurites appeared/total number of cells ([2]; 24 hours, 0.2 mM): 3/51
- Number of cells in which neurites appeared/total number of cells ([2]; 48 hours, 0.5 mM): 2/49

SMILES: CC(=O)N(C)c1cc(C)nc(N2CCCCC2)n1 [Compound 384]
- Number of cells having neurites with a length at least two times the diameter of each cell/total number of cells ([1]; 0.3 mM): 10.4 ± 2.5%
- Number of cells having neurites with a length at least two times the diameter of each cell/total number of cells ([1]; 1 mM): 10.8 ± 7.2%
- Number of cells in which neurites appeared/total number of cells ([2]; 24 hours, 0.4 mM): 8/50
- Number of cells in which neurites appeared/total number of cells ([2]; 48 hours, 0.4 mM): 3/50

SMILES: CC(=O)N(C)c1nc(N2CCC(c3ccccc3)CC2)ncc1C [Compound 416]
- Number of cells having neurites with a length at least two times the diameter of each cell/total number of cells ([1]; 0.1 mM): 13.2 ± 1.3%
- Number of cells having neurites with a length at least two times the diameter of each cell/total number of cells ([1]; 0.3 mM): 10.8 ± 1.5%
- Number of cells in which neurites appeared/total number of cells ([2]; 24 hours, 0.1 mM): 7/50
- Number of cells in which neurites appeared/total number of cells ([2]; 24 hours, 0.4 mM): 11/50
- Number of cells in which neurites appeared/total number of cells ([2]; 48 hours, 0.1 mM): 2/50

SMILES: CN(C(=O)c1ccccc1)c1nc(N2CCC(c3ccccc3)CC2)ncc1F [Compound 432]
- Number of cells having neurites with a length at least two times the diameter of each cell/total number of cells ([1]; 0.1 mM): 2.9 ± 1.0%
- Number of cells having neurites with a length at least two times the diameter of each cell/total number of cells ([1]; 0.3 mM): 3.6 ± 1.7%
- Number of cells in which neurites appeared/total number of cells ([2]; 24 hours, 0.02 mM): 7/50
- Number of cells in which neurites appeared/total number of cells ([2]; 24 hours, 0.4 mM): 7/50
- Number of cells in which neurites appeared/total number of cells ([2]; 48 hours, 0.4 mM): 4/50

SMILES: CCOC(=O)c1cnc(N2CCCCC2)nc1CNC [Compound 812]
- Number of cells having neurites with a length at least two times the diameter of each cell/total number of cells ([1]; 0.1 mM): 3.5 ± 0.5%
- Number of cells having neurites with a length at least two times the diameter of each cell/total number of cells ([1]; 0.3 mM): 3.4 ± 0.5%
- Number of cells in which neurites appeared/total number of cells ([2]; 24 hours, 0.5 mM): 9/50
- Number of cells in which neurites appeared/total number of cells ([2]; 24 hours, 1.0 mM): 11/50
- Number of cells in which neurites appeared/total number of cells ([2]; 48 hours, 0.3 mM): 9/50
- Number of cells in which neurites appeared/total number of cells ([2]; 48 hours, 0.5 mM): 5/51

SMILES: COCc1nc(N2CCCCC2)ncc1C(=O)OC [Compound 820, 2-piperidino-4-methoxymethyl-5-methoxycarbonylpyrimidine]
- Number of cells having neurites with a length at least two times the diameter of each cell/total number of cells ([1]; 1 mM): 8.4 ± 1.1%
- Number of cells having neurites with a length at least two times the diameter of each cell/total number of cells ([1]; 3 mM): 8.8 ± 2.3%
- Number of cells in which neurites appeared/total number of cells ([2]; 24 hours, 0.1 mM): 4/50
- Number of cells in which neurites appeared/total number of cells ([2]; 24 hours, 0.5 mM): 5/53
- Number of cells in which neurites appeared/total number of cells ([2]; 48 hours, 0.1 mM): 4/50
- Number of cells in which neurites appeared/total number of cells ([2]; 48 hours, 0.25 mM): 5/55

SMILES: CCOC(=O)c1cnc(NC(C)C)nc1CN(C)C [Compound 828]
- Number of cells having neurites with a length at least two times the diameter of each cell/total number of cells ([1]; 0.3 mM): 7.3 ± 1.6%
- Number of cells having neurites with a length at least two times the diameter of each cell/total number of cells ([1]; 1 mM): 6.1 ± 2.0%
- Number of cells in which neurites appeared/total number of cells ([2]; 24 hours, 0.3 mM): 10/58
- Number of cells in which neurites appeared/total number of cells ([2]; 24 hours, 0.5 mM): 5/59
- Number of cells in which neurites appeared/total number of cells ([2]; 48 hours, 0.3 mM): 6/50
- Number of cells in which neurites appeared/total number of cells ([2]; 48 hours, 0.5 mM): 5/51

SMILES: CNc1ccnc(N2CCCCC2)n1 [Compound 1014]
- Number of cells having neurites with a length at least two times the diameter of each cell/total number of cells ([1]; 0.1 mM): 4.7 ± 0.7%
- Number of cells having neurites with a length at least two times the diameter of each cell/total number of cells ([1]; 0.3 mM): 7.6 ± 1.5%
- Number of cells in which neurites appeared/total number of cells ([2]; 24 hours, 0.1 mM): 3/50
- Number of cells in which neurites appeared/total number of cells ([2]; 24 hours, 0.4 mM): 9/50
- Number of cells in which neurites appeared/total number of cells ([2]; 48 hours, 0.4 mM): 6/50

SMILES: CNc1ccnc(N2CCC(c3ccccc3)CC2)n1.O=C(O)/C=C\C(=O)O [Compound 1026, 4-Methylamino-2-(4-phenylpiperidino)pyrimidine maleate]
- Number of cells having neurites with a length at least two times the diameter of each cell/total number of cells ([1]; 0.03 mM): 3.5 ± 0.5%
- Number of cells having neurites with a length at least two times the diameter of each cell/total number of cells ([1]; 0.1 mM): 5.6 ± 2.2%
- Number of cells in which neurites appeared/total number of cells ([2]; 24 hours, 0.02 mM): 4/50
- Number of cells in which neurites appeared/total number of cells ([2]; 24 hours, 0.1 mM): 31/50
- Number of cells in which neurites appeared/total number of cells ([2]; 48 hours, 0.02 mM): 2/50

SMILES: CNc1cc(C)nc(N2CCCCC2)n1 [Compound 1086]
- Number of cells having neurites with a length at least two times the diameter of each cell/total number of cells ([1]; 0.03 mM): 1.9 ± 1.8%
- Number of cells having neurites with a length at least two times the diameter of each cell/total number of cells ([1]; 0.1 mM): 3.1 ± 1.3%
- Number of cells having neurites with a length at least two times the diameter of each cell/total number of cells ([1]; 0.3 mM): 8.7 ± 0.8%
- Number of cells having neurites with a length at least two times the diameter of each cell/total number of cells ([1]; 1 mM): 17.4 ± 1.1%
- Number of cells in which neurites appeared/total number of cells ([2]; 24 hours, 0.4 mM): 4/50
- Number of cells in which neurites appeared/total number of cells ([2]; 48 hours, 0.02 mM): 2/50

SMILES: CNc1nc(N2CCCCC2)ncc1C [Compound 1094]
- Number of cells having neurites with a length at least two times the diameter of each cell/total number of cells ([1]; 0.1 mM): 5.4 ± 1.9%
- Number of cells having neurites with a length at least two times the diameter of each cell/total number of cells ([1]; 0.3 mM): 16.9 ± 1.2%
- Number of cells having neurites with a length at least two times the diameter of each cell/total number of cells ([1]; 1 mM): 10.9 ± 1.1%
- Number of cells in which neurites appeared/total number of cells ([2]; 24 hours, 0.1 mM): 4/54
- Number of cells in which neurites appeared/total number of cells ([2]; 24 hours, 0.4 mM): 7/48
- Number of cells in which neurites appeared/total number of cells ([2]; 48 hours, concentration printed "0. mM"): 2/50
